# According to ChEMBL document CHEMBL1770057, “Synthesis and antibacterial activity of alaremycin derivatives for the porphobilinogen synthase” (Bioorg Med Chem Lett, 2011):
# Tested on: not listed separately
# Assay: Inhibition of Pseudomonas fluorescens porphobilinogen synthase by PBGS assay
row,SMILES,IC50 [mM]
1,C[C@H](NC(=O)C(F)(F)F)C(=O)CCC(=O)O,3
2,C[C@@H](NC(=O)C(F)(F)F)C(=O)CCC(=O)O,4.1
3,O=C(O)CCC(=O)CNC(=O)C(F)(F)F,8
4,C=C(NC(=O)CC(F)(F)F)C(=O)CCC(=O)O,0.9
5,C=C(NC(=O)C(F)(F)F)C(=O)CCC(=O)O,0.022
6,C=C(NC(=O)CCC(F)(F)F)C(=O)CCC(=O)O,0.051
7,CC(=O)N[C@H](C)C(=O)CCC(=O)O [ALAREMYCIN 2],0.7

# The remaining compounds from weak to strong by IC50, led by results:
row,IC50 [mM],SMILES
1,2.6,C=C(NC(C)=O)C(=O)CCC(=O)O [ALAREMYCIN]
2,2.5,CC(=O)NCC(=O)CCC(=O)O
3,1.3,O=C(O)CCC(=O)CNC(=O)CCC(F)(F)F
4,1.1,CC(=O)N[C@@H](C)C(=O)CCC(=O)O
5,0.5,O=C(O)CCC(=O)CNC(=O)CC(F)(F)F

# Tested on: Pseudomonas fluorescens
# Assay: Ratio of IC50 of Alaremycin to IC50 of compound for Pseudomonas fluorescens porphobilinogen synthase
row,Ratio IC50,SMILES
1,100,C=C(NC(=O)C(F)(F)F)C(=O)CCC(=O)O
2,50,C=C(NC(=O)CCC(F)(F)F)C(=O)CCC(=O)O
